This is an account of results in patent US12227495B2, “Herbicidal compounds” (SYNGENTA CROP PROTECTION AG, priority 2018, dated 2025).

Assay type in all cases: in vivo
For assay [1], the system named is Amaranthus retoflexus (AMARE). The experiment in a line: Pre-emergence herbicide test, glasshouse, percentage damage. The following applies: rate 1000 g/ha, evaluated after 13 days. In a few lines:
(§1)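 Compounds are applied as aqueous sprays at 500 g/ha, unless otherwise stated, either one day after sowing or to 8-day-old plants. Injury is assessed after 13 days and expressed on a 1-5 scale, where 5 means 81-100% damage.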

Assay [2] relates to Ipomoea hederacea (IPOHE). The description is as above. The note with it: rate 1000 g/ha, evaluated after 13 days. In a few lines: as §1
The test system of assay [3] is Setaria faberi (SETFA). The description is as above. The note with it: rate 1000 g/ha, evaluated after 13 days. An outline of the steps: as §1
In assay [4] the test system is Lolium perenne (LOLPE). Described as above. The note with it: rate 1000 g/ha, evaluated after 13 days. An outline of the steps:
as §1

In assay [5] the test system is Solanum nigrum (SOLNI). The description is as above. The note with it: rate 1000 g/ha, evaluated after 13 days. In a few lines: as §1
The subject of assay [6] is Echinochloa crus-galli (ECHCG). The assay is described as above. The following applies: rate 1000 g/ha, evaluated after 13 days. An outline of the steps: as §1
Assay [7] concerns Amaranthus retoflexus (AMARE). The assay is described as follows: Post-emergence herbicide test, glasshouse, percentage damage. The following applies: 1000 g/ha, evaluated after 13 days. An outline of the steps:
as §1

For assay [8], the system named is Ipomoea hederacea (IPOHE). Described as above. The note with it: 1000 g/ha, evaluated after 13 days. In a few lines: as §1
The subject of assay [9] is Setaria faberi (SETFA). The description is as above. The following applies: 1000 g/ha, evaluated after 13 days. An outline of the steps:
as §1

In assay [10] the test system is Lolium perenne (LOLPE). The description is as above. The note with it: 1000 g/ha, evaluated after 13 days. An outline of the steps:
as §1

Assay [11] concerns Solanum nigrum (SOLNI). The assay is described as above. The note with it: 1000 g/ha, evaluated after 13 days. In a few lines: as §1
Assay [12] relates to Echinochloa crus-galli (ECHCG). The assay is described as above. The note with it: 1000 g/ha, evaluated after 13 days. In a few lines: as §1

On to `Fc1cccc(Oc2cc(C(F)(F)F)c(C(F)(F)F)cn2)c1-c1cc(C(F)F)no1` [Compound A78], for which the “Pre-emergence Test AMARE percentage damage (five point scale)” value in assay [1] was 1 (1=0-20%). In [2], the “Pre-emergence Test IPOHE percentage damage (five point scale)” value was 1 (1=0-20%). For the same molecule, in [3], the “Pre-emergence Test SETFA percentage damage (five point scale)” value is 2 (2=21-40%). The “Pre-emergence Test LOLPE percentage damage (five point scale)” value in assay [4] is given as 1 (1=0-20%). In addition, the “Pre-emergence Test SOLNI percentage damage (five point scale)” value in assay [5] was 1 (1=0-20%). For the same molecule, the “Pre-emergence Test ECHCG percentage damage (five point scale)” value in [6] is given as 1 (1=0-20%). Besides, the “percentage damage caused to the plant, AMARE” value in [7] is listed as 3 (3=41-60%). For the same molecule, the “percentage damage caused to the plant, IPOHE” value in assay [8] is on record as 1 (1=0-20%). Moreover, the “percentage damage caused to the plant, SETFA” value in assay [9] was 1 (1=0-20%). Also, the “percentage damage caused to the plant, LOLPE” value in assay [10] is reported as 1 (1=0-20%). The “percentage damage caused to the plant, SOLNI” value in [11] was 4 (4=61-80%). In addition, the “percentage damage caused to the plant, ECHCG” value in assay [12] is listed as 1 (1=0-20%).

Turning to `Fc1cc(Cl)cnc1Oc1c(Br)cccc1-c1cc(C(F)F)no1` [Compound A83], the “Pre-emergence Test AMARE percentage damage (five point scale)” value in assay [1] is 4 (4=61-80%). Besides, the “Pre-emergence Test IPOHE percentage damage (five point scale)” value in assay [2] is recorded as 1 (1=0-20%). Further, the “Pre-emergence Test SETFA percentage damage (five point scale)” value in assay [3] is recorded as 2 (2=21-40%). Besides, the “Pre-emergence Test LOLPE percentage damage (five point scale)” value in assay [4] is 1 (1=0-20%). Moreover, in assay [5], the “Pre-emergence Test SOLNI percentage damage (five point scale)” value is given as 1 (1=0-20%). In assay [6], the “Pre-emergence Test ECHCG percentage damage (five point scale)” value is 2 (2=21-40%). The “percentage damage caused to the plant, AMARE” value in [7] is reported as 5 (5=81-100%). The “percentage damage caused to the plant, IPOHE” value in assay [8] is given as 2 (2=21-40%). The “percentage damage caused to the plant, SETFA” value in [9] is 4 (4=61-80%). Besides, in [10], the “percentage damage caused to the plant, LOLPE” value is recorded as 4 (4=61-80%). Further, the “percentage damage caused to the plant, SOLNI” value in assay [11] was 4 (4=61-80%). In assay [12], the “percentage damage caused to the plant, ECHCG” value is on record as 4 (4=61-80%).

Turning to `Fc1cc(Cl)cnc1Oc1ccccc1-c1cc(C(F)F)no1` [Compound A43], the “Pre-emergence Test AMARE percentage damage (five point scale)” value in assay [1] is recorded as 5 (5=81-100%). Moreover, in [2], the “Pre-emergence Test IPOHE percentage damage (five point scale)” value is 4 (4=61-80%). Further, in [3], the “Pre-emergence Test SETFA percentage damage (five point scale)” value was 5 (5=81-100%). In addition, the “Pre-emergence Test LOLPE percentage damage (five point scale)” value in [4] was 5 (5=81-100%). For the same molecule, the “Pre-emergence Test SOLNI percentage damage (five point scale)” value in assay [5] was 5 (5=81-100%). Also, the “Pre-emergence Test ECHCG percentage damage (five point scale)” value in [6] was 5 (5=81-100%). The “percentage damage caused to the plant, AMARE” value in [7] is 5 (5=81-100%). In addition, the “percentage damage caused to the plant, IPOHE” value in assay [8] is 4 (4=61-80%). In assay [9], the “percentage damage caused to the plant, SETFA” value is on record as 5 (5=81-100%). In addition, in assay [10], the “percentage damage caused to the plant, LOLPE” value is 5 (5=81-100%). Besides, in assay [11], the “percentage damage caused to the plant, SOLNI” value is 5 (5=81-100%). Also, the “percentage damage caused to the plant, ECHCG” value in [12] is listed as 4 (4=61-80%).

For the molecule `Fc1cc(Cl)cnc1Oc1c(F)cccc1-c1cc(C(F)F)no1` [Compound A93], in assay [1], the “Pre-emergence Test AMARE percentage damage (five point scale)” value is reported as 4 (4=61-80%). For the same molecule, the “Pre-emergence Test IPOHE percentage damage (five point scale)” value in assay [2] is recorded as 3 (3=41-60%). For the same molecule, the “Pre-emergence Test SETFA percentage damage (five point scale)” value in assay [3] was 4 (4=61-80%). Moreover, in assay [4], the “Pre-emergence Test LOLPE percentage damage (five point scale)” value is listed as 3 (3=41-60%). Moreover, the “Pre-emergence Test SOLNI percentage damage (five point scale)” value in assay [5] is recorded as 4 (4=61-80%). Further, the “Pre-emergence Test ECHCG percentage damage (five point scale)” value in [6] is on record as 4 (4=61-80%). In assay [7], the “percentage damage caused to the plant, AMARE” value is given as 5 (5=81-100%). In [8], the “percentage damage caused to the plant, IPOHE” value is reported as 3 (3=41-60%). In [9], the “percentage damage caused to the plant, SETFA” value is 5 (5=81-100%). The “percentage damage caused to the plant, LOLPE” value in assay [10] is 3 (3=41-60%). For the same molecule, the “percentage damage caused to the plant, SOLNI” value in [11] is given as 3 (3=41-60%). Besides, the “percentage damage caused to the plant, ECHCG” value in [12] is given as 4 (4=61-80%).

For `Fc1cccc(Oc2cccc(Cl)c2-c2cc(C(F)F)no2)n1` [Compound A111], the “Pre-emergence Test AMARE percentage damage (five point scale)” value in assay [1] is recorded as 5 (5=81-100%). For the same molecule, the “Pre-emergence Test IPOHE percentage damage (five point scale)” value in assay [2] is 1 (1=0-20%). Moreover, the “Pre-emergence Test SETFA percentage damage (five point scale)” value in [3] is given as 5 (5=81-100%). In addition, the “Pre-emergence Test LOLPE percentage damage (five point scale)” value in assay [4] is on record as 4 (4=61-80%). In [5], the “Pre-emergence Test SOLNI percentage damage (five point scale)” value was 4 (4=61-80%). In addition, in assay [6], the “Pre-emergence Test ECHCG percentage damage (five point scale)” value is on record as 5 (5=81-100%). Moreover, the “percentage damage caused to the plant, AMARE” value in assay [7] is given as 5 (5=81-100%). For the same molecule, the “percentage damage caused to the plant, IPOHE” value in assay [8] is listed as 4 (4=61-80%). The “percentage damage caused to the plant, SETFA” value in assay [9] is listed as 5 (5=81-100%). Also, the “percentage damage caused to the plant, LOLPE” value in assay [10] is given as 4 (4=61-80%). For the same molecule, the “percentage damage caused to the plant, SOLNI” value in assay [11] is given as 5 (5=81-100%). Moreover, the “percentage damage caused to the plant, ECHCG” value in assay [12] is on record as 4 (4=61-80%).
